Experimental data reported in patent publication US20240304334A1, “CLOTTABILITY-BASED PERSONALIZED TREATMENT (CPT) SYSTEM” (priority 2021, published 2024).
Where “and” joins values, the source holds several entries; their conditions need not be identical. Identical values can stand only once. Values belong to the molecule of their own block, whether it stands above or below them.

How the values were obtained:
[1] = test system: coagulation pathway; assay: Clottability test (CCT minus TFT) in plasma of patients on anticoagulants, clinical study C; format: in vivo, human; conditions: individual patient plasma, single time point, on anticoagulant
Experimental: For determination of the clottability of blood, combined clottability assays were performed using a (a) clot-based and (b) enzyme-based fibrinogen test. The information provided by the assay is whether the blood is normal-clottable, hyperclottable, or hypoclottable by measuring fibrinogen concentration in blood plasma.
To estimate the clotting dynamics, […]. Thus, clottability is determined by […] (clottability=CCT−TFT). Exemplary, high values after subtraction of the obtained concentrations of the tests indicate high amounts of pro-coagulable factors and thus increased thrombin activity. Therefore, the greater the in vivo thrombin activation, the higher the obtained values from the clottability test. This leads to the finding that high values relate to an increased clottability.
The skilled person is aware of how to perform the CCT test. Thus, as an example, Multifibren-U from Siemens and/or HemoslL Fibrinogen-C from IL/Werfen can be used. Moreover, it is known that the CCT test can show a higher fibrinogen concentration than the actual concentration due to enhanced clotting efficiency by the pro-coagulable factors due to the thrombin activity. […]

[2] = test system: patients with acute cerebral infarction (ACI); assay: Glasgow coma score (GCS) in acute cerebral infarction patients; format: in vivo, human
Experimental: (§1) Seventy patients who had complete clinical record and were diagnosed with acute cerebral infarction (ACI), either validated by CT or MRI, were included into this study. They have to be the first time patients of ACI and the disease onset should be shorter than 72 hours, and the cause of the cerebral infarction was cardiac origin, and they were without abnormal renal function, without bleeding history and hemostatic abnormality. These 70 patients were divided into 2 groups, 35 in control group and the other 35 in observational group. The control group patients were treated with rivaroxaban (anticoagulant), while observational group patients were treated combined rivaroxaban and sodium ozagrel (anti-platelet). Sodium ozagrel inhibits platelet activation and aggregation through specific inhibition of thromboxane (TX) synthetase. Due to the inhibitory effect of ozagrel on platelet activation, platelets cease to become the main lipid surface of thrombin generation. Beside standard treatment such as enriched oxygen supply, etc, all 70 patients were treated with aspirin 100 mg/tablet/day. Additionally, the control and observational groups were given rivaroxaban 15 mg/tablet/day. On top of rivaroxaban, the observational group received intravenously and daily 80 mg of ozagrel sodium in 500 mL glucose (5%) solution. Everyone was treated for 2 weeks. Both groups have very similar age mean and range (40-70 years). The coma assessment was carried out before and after treatment on all subjects, based on Glasgow coma score (GCS) scoring system, which has 15 as full score. The degree of coma is lighter and is reflected with higher score. The recovery based on GCS is summarized in Table 4, together with CCT results.

[3] = test system: patients with acute cerebral infarction (ACI); assay: Neurological assessment (NIHSS) in acute cerebral infarction patients; format: in vivo, human; conditions: ACI patients n=35, 2 weeks, plus aspirin 100 mg/day
Experimental: as §1, with “years). After 2 weeks of treatment, clinical efficacy (neurological assessments), coagulation lab tests (only CCT is shown) and GCS scores of the two groups were compared. Neurological […] according to NIH stroke scale (NIHSS). When NIHSS score reduces ≥90%, the disability classification is grade 0, and the treatment is highly efficacious. When NIHSS score reduces to between 46% and 89%, the disability classification is grade 1 to 3, the treatment is considered efficacious.” for “years).”, “The” for “The coma assessment was carried out before and after”, “is no efficacious, when the” for “on all subjects, based on Glasgow coma”, “score” for “score (GCS) scoring system, which has 15 as full score. The degree of coma”, “below 46%.” for “lighter and is reflected with higher score. The recovery based on GCS is summarized in Table 4, together with CCT results.”

[4] = test system: Fibrin(ogen); assay: CCT in acute cerebral infarction patients; format: in vivo, human; conditions: ACI patients
Experimental: as §1, with “years). After 2 weeks of treatment, clinical efficacy (neurological assessments), coagulation lab tests (only CCT is shown) and GCS scores of the two groups were compared. Neurological […] according to NIH stroke scale (NIHSS). When NIHSS score reduces ≥90%, the disability classification is grade 0, and the treatment is highly efficacious. When NIHSS score reduces to between 46% and 89%, the disability classification is grade 1 to 3, the treatment is considered efficacious.” for “years).”, “The” for “The coma assessment was carried out before and after”, “is no efficacious, when the” for “on all subjects, based on Glasgow coma”, “score” for “score (GCS) scoring system, which has 15 as full score. The degree of coma”, “below 46%.” for “lighter and is reflected with higher score. The recovery based on GCS is summarized in Table 4, together with CCT results.”

[5] = test system: fibrinogen and fibrin-derivatives; assay: CCT before and after anticoagulant in healthy volunteers; format: in vivo, human; conditions: 6 healthy volunteers; for CCT average after treatment: 3 hrs after last intake, rivaroxaban 15 mg twice daily 2.5 days, apixaban 10 mg twice daily 3.5 days; for CCT average before treatment: just before anticoagulant intake; for difference in CCT after vs before treatment: not statistical significant
Experimental: The skilled person is aware of how to perform the CCT test. Thus, as an example, Multifibren-U from Siemens and/or HemoslL Fibrinogen-C from IL/Werfen can be used. Moreover, it is known that the CCT test can show a higher fibrinogen concentration than the actual concentration due to enhanced clotting efficiency by the pro-coagulable factors due to the thrombin activity. […] In such study, rivaroxaban study was performed on 6 healthy volunteers, with ages between 18-50 years. They fulfilled the criteria of normal vital signs and lab screening tests for infection, hematology and coagulation, and had no abnormalities at physical examination. They were given 15 mg rivaroxaban twice daily for 2.5 days. The dosage of twice-daily 15 mg was chosen as it is the highest approved dosage for the initial treatment of acute venous thromboembolism (VTE). The apixaban study was performed on another 6 healthy volunteers, with the same health profile requirements as rivaroxaban study. These 6 volunteers were given 10 mg apixaban twice daily for 3.5 days. Blood samples were drawn just before anticoagulants intake and 3 hrs after the last intake. Measurement of fibrinogen was in duplicate.

[6] = human, in vivo
Experimental: Plasma samples from 19 patients were tested to investigate the coagulation pathway activity using the clottability test (CCT and TFT) and D-dimer test. These patients were receiving various anticoagulant drugs, such as rivaroxaban, apixaban, edoxaban, dabigatran, or argatroban, and the drug concentrations of each individual were determined. The aim of the study was to examine the activity of the coagulation pathway by means of both, the clottability test and D-dimer test in relation to the determined drug concentration in the plasma.

[7] = test system: fibrinogen and fibrin-derivatives; assay: CCT in AECOPD patients; format: in vivo, human
Source text: (§2) This is again another example how anticoagulant treatment reduces pathological in vivo thrombin generation with the concomitant reduction of fibrin-derivatives detectable by CCT. This example is a highly prevalent (>10%) progressive chronic disease, which has strong clinical manifestations of immune and coagulation systems. Chronic obstructive pulmonary disease (COPD) is an inflammatory lung disease that affects respiratory function with concomitant high thrombosis risk. In this example, study subjects were the 70 patients diagnosed with COPD and developed acute exacerbation form of COPD (AECOPD). On top of the standard AECOPD treatments e.g. anti-infection, bronchodilation, phlegm elimination, and oxygen treatment, etc, 32 of these AECOPD patients received no additional treatment and the other 38 of them were treated with low molecular weight heparin calcium (LMWH, 4100 IU anti-FXa/injection every 12 hrs, for 10 days).
(§3) Treatment efficacy was evaluated based on several parameters: pulmonary function, blood gas analysis and coagulation parameters. […] The pulmonary function was measured with several methods, such as FEV1 (measurement of forced expiratory volume in 1 sec after bronchodilator was inhaled) and FVC (forced vital capacity, and the ratio of FEV/FVC in % as clinical signs of respiratory performance). […] Several blood coagulation parameters were measured; they are CCT, DD, PT-INR.

[8] = test system: AECOPD patients; assay: Pulmonary function in AECOPD patients; format: in vivo, human
Source text: as §2
(§4) Treatment efficacy was evaluated based on several parameters: pulmonary function, blood gas analysis and coagulation parameters. All this information were obtained before and after the LMWH anticoagulant treatment, the same for the control group. The pulmonary function was measured with several methods, such as FEV1 (measurement of forced expiratory volume in 1 sec after bronchodilator was inhaled) and FVC (forced vital capacity, and the ratio of FEV/FVC in % as clinical signs of respiratory performance). Blood gas analysis was obtained by measuring oxygen saturation of blood (SO2), partial pressure of oxygen (PO2) and partial pressure of carbon dioxide (PCO2). Several blood coagulation parameters were measured; they are CCT, DD, PT-INR.

[9] = test system: coagulation system; assay: PT and INR in AECOPD patients; format: in vivo, human
Source text: as §2, §4

[10] = test system: AECOPD patients; assay: Blood gas analysis in AECOPD patients; format: in vivo, human; conditions: for PCO2 / SO2: AECOPD
Source text: as §2, §4

[11] = test system: D-dimer; assay: DD in AECOPD patients; format: in vivo, human
Source text: as §2, §3

[12] = co-administering Rifampicin (P-glycoprotein inducer); cited from earlier work

Molecule: O=C(NC[C@H]1CN(c2ccc(N3CCOCC3=O)cc2)C(=O)O1)c1ccc(Cl)s1 [rivaroxaban]
- Clottability test [1]: > 1.5 g/L and 1.7 g/L and -0.5 g/L and 0.6 g/L and 2 g/L
- GCS score ([2]; T0 before treatment): 6.8 ± 1.11
- GCS score ([2]; T1 after 2 weeks of treatment): 9.07 ± 1.92
- GCS score, difference in mean ([2]; T1 vs T0): 2.27
- efficacious (NIHSS reduction 46% to 89%), number of patients [3]: 8
- efficacious (NIHSS), share of patients [3]: (22.9%)
- highly efficacious (NIHSS score reduces ≥90%), number of patients [3]: 16
- highly efficacious (NIHSS), share of patients [3]: (45.7%)
- non-efficacious (NIHSS below 46%), number of patients [3]: 11
- non-efficacious (NIHSS), share of patients [3]: (31.4%)
- total efficacious (NIHSS), number of patients [3]: 24
- total efficacious (NIHSS), share of patients [3]: 68.6%
- Fibrin(ogen) CCT ([4]; T0 before treatment): 3.93 ± 1.49
- Fibrin(ogen) CCT ([4]; T1 after 2 weeks of treatment): 3.15 ± 1.12
- Fibrin(ogen) CCT, difference in mean ([4]; T1 vs T0): −0.78
- CCT average after treatment [5]: 2.64
- CCT average before treatment [5]: 2.75
- difference in CCT after vs before treatment [5]: −0.11

- PK profile [6]: bottom
Molecule: CC1CNc2c(cccc2S(=O)(=O)N[C@@H](CCCNC(=N)N)C(=O)N2CC[C@@H](C)C[C@@H]2C(=O)O)C1 (stereo partly drawn) [argatroban]

Molecule: low molecular weight heparin calcium [LMWH]
- CCT ([7]; after treatment): 2.16
- CCT ([7]; before treatment): 3.97
- FEV1 ([8]; after treatment): 1.89 L
- FEV1/FVC ([8]; after treatment): 78.4%
- FEV1 ([8]; before treatment): 1.36 L
- FEV1/FVC ([8]; before treatment): 62.3%
- INR ([9]; after treatment): 1.36
- PT ([9]; after treatment): 13.7
- INR ([9]; before treatment): 0.87
- PT ([9]; before treatment): 9.6
- PO2 ([10]; AECOPD patients n=38, after 10 days LMWH plus standard treatment): 78.4 mmHg
- PO2 ([10]; AECOPD patients n=38, before treatment): 71.5 mmHg
- PCO2 ([10]; after treatment): 41.9 mmHg
- SO2 ([10]; after treatment): 98.6%
- PCO2 ([10]; before treatment): 52.2 mmHg
- SO2 ([10]; before treatment): 90.8%
- DD ([11]; after treatment): 237.4 µg/L
- DD ([11]; before treatment): 482.8 µg/L

Molecule: [H]/N=C(/N)c1ccc(NCc2nc3cc(C(=O)N(CCC(=O)O)c4ccccn4)ccc3n2C)cc1 [dabigatran]
- decrease of maximum plasma concentration of dabigatran [12]: approximately 67%

Molecule: COc1ccc(-n2nc(C(N)=O)c3c2C(=O)N(c2ccc(N4CCCCC4=O)cc2)CC3)cc1 [apixaban]
- Clottability test [1]: > 1.5 g/L and 2.7 g/L and 0.8 g/L and 1.8 g/L
- CCT average after treatment [5]: 2.38
- CCT average before treatment [5]: 2.56
- difference in CCT after vs before treatment [5]: −0.18
